The numbers were not newly measured in patent publication US8298573B2, “Stable sterile filterable liposomal encapsulated taxane and other antineoplastic drugs” (priority 2003, dated 2012), which cites them from elsewhere.

Consider `CC(=O)O[C@H]1C(=O)[C@@]2(C)[C@H]([C@H](OC(=O)c3ccccc3)[C@]3(O)C[C@H](OC(=O)[C@H](O)[C@@H](NC(=O)c4ccccc4)c4ccccc4)C(C)=C1C3(C)C)[C@]1(OC(C)=O)CO[C@@H]1C[C@@H]2O` [paclitaxel], for which the solubility in water result is given as “extremely low”.
